For experiment [1], the target named is T1, human DGKα (Homo sapiens, UniProt P23743).
T1 construct: TVMV protease cleavage site (C); Hexa-His (C); made in house; host or cells: Sf9 insect cells (baculovirus, Bac-to-Bac)
Briefly: DGKα LIPGLO assay (extruded liposome substrate), in vitro DGK inhibition. The format is biochemical.

Experiment [2] addresses T2, human DGKζ (Homo sapiens, UniProt Q13574).
T2 construct: TVMV protease cleavage site (C); Hexa-His (C); made in house; host or cells: Sf9 insect cells (baculovirus, Bac-to-Bac)
Briefly: DGKζ LIPGLO assay (extruded liposome substrate), in vitro DGK inhibition. The note with it: read-out: DGKz LIPGLO IC50. In kind it is biochemical.

In experiment [3] the test system is Human venous whole blood. Briefly: Human whole blood IFN-γ assay.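 Note: blood from healthy donors exposed to compound for 1 h before stimulation with anti-CD3 and anti-CD28 at 1 µg/mL each, IFN-γ quantified in supernatant by AlphaLISA.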 The format is cell-based. The note with it: human whole blood, read-out: INFg Whole Blood Normalized Agonist EC50.
Experimental: Human Whole Blood IFN-γ Assay
Human venous whole blood (22.5 μL per well), obtained from healthy donors, was pre-treated with compounds for one hour at 37° C. in a humidified 95% air/5% CO2 incubator. The blood was stimulated with 2.5 μL anti-human CD3 and anti-CD28 mAb at a final concentration of 1 μg/mL each for 24 hours at 37° C. IFN-γ in the supernatants was measured using AlphLISA kit (Cat # AL217).
Setting [4] is: liposome (LIPGLO) assay, read-out: DGKa LIPGLO IC50.
Setting [5] is: Homo sapiens, 24 h, normalized to 3 μM reference compound with anti-CD3 plus anti-CD28 as 100% activation.
[6] abbreviates: normalized to 3 μM reference compound with anti-CD3 plus anti-CD28 as 100% activation.

Like-named read-outs stand apart in the source and are kept apart here.

Results on 13 compounds are retold here after patent publication US10669272B2, “Substituted naphthyridinone compounds useful as T cell activators” (BRISTOL-MYERS SQUIBB COMPANY, priority 2018, dated 2020).

T1 sequence (P23743 with tags, fused parts or gaps): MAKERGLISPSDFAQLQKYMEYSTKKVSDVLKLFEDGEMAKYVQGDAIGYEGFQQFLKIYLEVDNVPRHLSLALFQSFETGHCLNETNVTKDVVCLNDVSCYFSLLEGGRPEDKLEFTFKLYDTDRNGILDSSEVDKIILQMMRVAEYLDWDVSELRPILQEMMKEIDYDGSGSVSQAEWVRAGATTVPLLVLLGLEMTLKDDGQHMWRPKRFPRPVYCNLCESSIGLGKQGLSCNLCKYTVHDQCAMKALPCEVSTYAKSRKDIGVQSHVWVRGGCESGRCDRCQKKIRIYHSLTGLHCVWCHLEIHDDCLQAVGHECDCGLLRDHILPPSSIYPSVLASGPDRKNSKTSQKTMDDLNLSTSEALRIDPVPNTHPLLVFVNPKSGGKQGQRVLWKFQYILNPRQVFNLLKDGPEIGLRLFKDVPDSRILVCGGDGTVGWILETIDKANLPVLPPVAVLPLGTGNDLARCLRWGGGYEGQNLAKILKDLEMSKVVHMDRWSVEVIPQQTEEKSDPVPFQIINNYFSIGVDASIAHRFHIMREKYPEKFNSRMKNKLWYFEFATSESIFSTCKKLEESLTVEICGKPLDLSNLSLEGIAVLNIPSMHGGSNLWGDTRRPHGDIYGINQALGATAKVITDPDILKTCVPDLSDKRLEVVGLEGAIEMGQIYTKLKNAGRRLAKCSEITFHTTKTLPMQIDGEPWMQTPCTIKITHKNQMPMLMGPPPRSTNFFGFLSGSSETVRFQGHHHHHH
T2 sequence (Q13574 with tags, fused parts or gaps isoform Q13574-4): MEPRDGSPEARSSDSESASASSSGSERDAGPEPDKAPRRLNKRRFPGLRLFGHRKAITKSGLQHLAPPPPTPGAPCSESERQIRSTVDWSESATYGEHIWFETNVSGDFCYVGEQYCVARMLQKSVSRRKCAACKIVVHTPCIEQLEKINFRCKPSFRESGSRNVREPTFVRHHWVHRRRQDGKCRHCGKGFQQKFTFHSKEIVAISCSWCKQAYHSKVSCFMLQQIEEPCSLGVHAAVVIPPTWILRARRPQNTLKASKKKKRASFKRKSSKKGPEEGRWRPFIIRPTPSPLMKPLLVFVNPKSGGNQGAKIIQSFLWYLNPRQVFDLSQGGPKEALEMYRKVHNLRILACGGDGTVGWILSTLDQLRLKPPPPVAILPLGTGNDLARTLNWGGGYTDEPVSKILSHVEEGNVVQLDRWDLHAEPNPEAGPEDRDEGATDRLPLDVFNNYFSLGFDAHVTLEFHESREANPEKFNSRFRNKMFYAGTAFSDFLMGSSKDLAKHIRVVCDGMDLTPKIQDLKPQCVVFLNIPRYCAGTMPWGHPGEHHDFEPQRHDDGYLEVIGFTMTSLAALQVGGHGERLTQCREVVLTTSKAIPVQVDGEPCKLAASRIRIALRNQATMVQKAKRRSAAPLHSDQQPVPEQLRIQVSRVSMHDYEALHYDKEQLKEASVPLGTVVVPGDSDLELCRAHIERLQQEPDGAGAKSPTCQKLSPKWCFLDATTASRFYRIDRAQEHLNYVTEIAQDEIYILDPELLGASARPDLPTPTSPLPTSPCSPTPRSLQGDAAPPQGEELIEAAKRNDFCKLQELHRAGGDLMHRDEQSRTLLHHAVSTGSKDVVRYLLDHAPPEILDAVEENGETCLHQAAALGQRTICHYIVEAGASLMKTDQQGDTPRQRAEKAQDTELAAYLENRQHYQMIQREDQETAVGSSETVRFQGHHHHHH

The IC50 is the midpoint of a concentration-inhibition curve. The EC50 is the concentration needed to bring the measured effect to its halfway point. With `CC(c1nc(C2CC2)cs1)N1C[C@H](C)N(c2cc(=O)n(C)c3ccc(C#N)nc23)C[C@H]1C` (single isomer, unassigned) [Example 646], the results for the IC50 in experiment [1] (setting [4]) and in experiment [2] (liposome (LIPGLO) assay) were 1600 nM and 2700 nM, respectively. Besides, the EC50 in experiment [3] (setting [5]) worked out at 6700 nM.
Turning to `CC[C@H]1CN(C(C)c2ccc(OC)cc2)[C@H](CC)CN1c1cc(=O)n(C)c2ccc(C#N)nc12` (single isomer, unassigned) [Example 1367], the IC50 in experiment [1] (setting [4]) came to 170 nM; in experiment [2] (liposome (LIPGLO) assay), 2900 nM. In addition, in experiment [3] (setting [6]), the EC50 worked out at 1900 nM.
As to `Cn1c(=O)cc(N2CCN(Cc3ccc(F)cc3Cl)C(COC(F)F)C2)c2nc(C#N)ccc21` (single isomer, unassigned) [Example 1185, 8-(4-(2-chloro-4-fluorobenzyl)-3-((difluoromethoxy)methyl)piperazin-1-yl)-5-methyl-6-oxo-5,6-dihydro-1,5-naphthyridine-2-carbonitrile], the figures for the IC50 in experiment [1] (setting [4]) and in experiment [2] (liposome (LIPGLO) assay) were 81000 nM and 2400 nM, respectively. Further, in experiment [3] (setting [5]), the EC50 was 4300 nM.
Turning to `CC[C@H]1CN(C(C)c2ccc(C(F)(F)F)cc2)[C@H](C)CN1c1cc(=O)n(C)c2ccc(C#N)nc12` (single isomer, unassigned) [Example 1143], the IC50 was 1400 nM in experiment [1] (setting [4]) and 13000 nM in experiment [2] (liposome (LIPGLO) assay). In addition, the concentration giving a half-maximal response (EC50) in experiment [3] (setting [6]) amounted to 4000 nM.
Regarding `CC(c1ccc(OC(F)(F)F)cc1)N1C[C@H](C)N(c2cc(=O)n(C)c3ccc(C#N)nc23)C[C@H]1CN1CCN(C)CC1` (stereo partly drawn) [Example 1418], the IC50 is 67000 nM in experiment [1] (setting [4]) and 62000 nM in experiment [2] (liposome (LIPGLO) assay). Moreover, the EC50 in experiment [3] (setting [6]) turned out to be 20000 nM.
As to `C[C@@H]1CN(c2cc(=O)n(C)c3ccc(C#N)nc23)[C@@H](C)CN1C(c1ccc(F)cc1)c1cccc(N2CCOCC2)c1` (single isomer, unassigned) [Example 672], the IC50 in experiment [1] (setting [4]) turned out to be 92000 nM; in experiment [2] (liposome (LIPGLO) assay) it was 1700 nM. For the same compound, the EC50 in experiment [3] (setting [6]) was found to be 9500 nM.
In the case of `C[C@@H]1CN(c2c(C#N)c(=O)n(C)c3ccc(C#N)nc23)CCN1C(c1ccc(F)cc1)c1cn(C)cn1` (single isomer, unassigned) [Example 1027], the IC50 is 29000 nM in experiment [1] (setting [4]) and 2200 nM in experiment [2] (liposome (LIPGLO) assay). Also, the EC50 in experiment [3] (setting [6]) came out at 7300 nM.
In the case of `CC(c1ccc(OC(F)(F)F)cc1F)N1C[C@H](C)N(c2cc(=O)n(C)c3ccc(C#N)nc23)C[C@H]1C` (single isomer, unassigned) [Example 442], the IC50 in experiment [1] (setting [4]) worked out at 1400 nM; in experiment [2] (liposome (LIPGLO) assay) it was 1800 nM. For the same compound, the EC50 in experiment [3] (setting [6]) is 7500 nM.
Consider `CC[C@H]1CN(C(C)c2ccc(C(F)(F)F)cc2)[C@H](CC)CN1c1cc(=O)n(C)c2ccc(C#N)nc12` (single isomer, unassigned) [Example 1052], for which the IC50 is 2500 nM in experiment [1] (setting [4]) and 2000 nM in experiment [2] (liposome (LIPGLO) assay). In addition, in experiment [3] (setting [6]), the EC50 turned out to be 190 nM.
`CC[C@@H]1CN(c2c(F)c(=O)n(C)c3ccc(C#N)nc23)CCN1C(c1ccc(Cl)cc1)c1ccc(Cl)cc1` [Example 178, (R)-8-(4-(bis(4-chlorophenyl)methyl)-3-ethylpiperazin-1-yl)-7-fluoro-5-methyl-6-oxo-5,6-dihydro-1,5-naphthyridine-2-carbonitrile]: the figures for the IC50 in experiment [1] (setting [4]) and in experiment [2] (liposome (LIPGLO) assay) were 610 nM and 390 nM, respectively. Also, in experiment [3] (setting [5]), the EC50 came to 580 nM.
As to `CC(c1cccc(C(F)(F)F)n1)N1C[C@H](C)N(c2cc(=O)n(C)c3ccc(C#N)nc23)C[C@H]1C` (single isomer, unassigned) [Example 637], the IC50 came out at 170 nM in experiment [1] (setting [4]) and 840 nM in experiment [2] (liposome (LIPGLO) assay). For the same compound, the EC50 in experiment [3] (setting [6]) is 10000 nM.
On to `C[C@@H]1CN(c2c(C#N)c(=O)n(C)c3ccc(C#N)nc23)CCN1Cc1ccccc1C(F)(F)F` [Example 1014], for which the IC50 was found to be 1300 nM in experiment [1] (DGKα liposome (LIPGLO) assay, read-out: DGKa LIPGLO IC50) and 1900 nM in experiment [2] (DGKζ liposome (LIPGLO) assay). Further, in experiment [3] (Homo sapiens, 24 h, anti-CD3 plus anti-CD28, 24 hours, 3 μM reference compound = 100% activation), the EC50 was 20000 nM.
For `CC(c1ccc(Cl)cc1)N1C[C@H](C)N(c2c(C#N)c(=O)n(C)c3ccc(C#N)nc23)C[C@H]1C` (single isomer, unassigned) [Example 792], the IC50 was determined as 1500 nM in experiment [1] (DGKa LIPGLO IC50, DGKα liposome (LIPGLO) assay) and 83000 nM in experiment [2] (DGKζ liposome (LIPGLO) assay). In addition, in experiment [3] (anti-CD3 plus anti-CD28, 24 hours, 3 μM reference compound = 100% activation), the EC50 was determined as 21000 nM.
